Laboratory results: patent publication US20070135403A1, “Substituted 2,5-diaminomethyl-1H-pyrrole compounds” (Gruenenthal GmbH, priority 2004, published 2007)
Counter-ions that a name gives are not always drawn.

Legend:
[1] = target: T1, 5-HT transporter (5-HT uptake) (Rattus norvegicus, UniProt P31652); assay: 5-HT uptake inhibition in rat brain synaptosomes (medulla and pons); assay type: biochemical; details: % inhibition
T1 construct: from tissue; host or cells: rat brain synaptosomes (P2 fraction) from medulla and pons
T1 sequence (P31652 whole entry): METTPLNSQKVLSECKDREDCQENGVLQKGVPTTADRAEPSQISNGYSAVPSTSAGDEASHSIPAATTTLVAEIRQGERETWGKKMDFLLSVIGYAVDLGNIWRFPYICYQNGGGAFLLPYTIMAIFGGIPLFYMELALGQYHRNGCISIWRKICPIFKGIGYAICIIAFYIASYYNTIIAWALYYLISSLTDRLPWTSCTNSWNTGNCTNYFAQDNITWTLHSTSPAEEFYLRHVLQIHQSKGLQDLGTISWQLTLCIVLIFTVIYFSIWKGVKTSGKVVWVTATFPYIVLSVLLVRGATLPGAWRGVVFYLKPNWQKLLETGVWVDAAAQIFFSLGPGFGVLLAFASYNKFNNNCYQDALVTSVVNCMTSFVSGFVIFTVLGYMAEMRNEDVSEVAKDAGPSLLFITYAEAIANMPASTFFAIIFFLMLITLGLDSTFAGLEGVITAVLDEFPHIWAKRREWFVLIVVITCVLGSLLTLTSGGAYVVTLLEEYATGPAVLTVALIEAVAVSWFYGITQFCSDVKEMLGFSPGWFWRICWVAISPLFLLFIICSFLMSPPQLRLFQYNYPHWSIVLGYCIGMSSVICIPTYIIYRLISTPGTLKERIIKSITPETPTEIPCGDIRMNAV
Text: (§1) b) Method For Determining Noradrenalin and 5-HT Uptake Inhibition
(§2) Synaptosomes from rat brain regions are freshly isolated for in vitro studies, as described in the publication “The isolation of nerve endings from brain” by E. G. Gray and V. P. Whittaker, J. Anatomy 96, pages 79-88, 1962. The corresponding literature description is hereby introduced as a reference and is deemed to be part of the disclosure.
(§3) The tissue (hypothalamus for the determination of noradrenalin uptake inhibition and medulla and pons for the determination of 5-HT uptake inhibition) is homogenised in ice-cooled 0.32 M sucrose (100 mg of tissue/1 ml) in a glass homogeniser with Teflon pestle using five complete up and down strokes at 840 revolutions/minute.
(§4) The homogenate is centrifuged at 4° C. for 10 minutes at 1000 g. After subsequent centrifugation at 17000 g for 55 minutes, the synaptosomes (P2 fraction) are obtained, which are resuspended in 0.32 M glucose (0.5 ml/100 mg of original weight).
(§5) The particular uptake is measured in a 96-well microtitre plate. The volume is 250 μl and the incubation proceeds at room temperature (approx. 20-25° C.) under an O2 atmosphere.
(§6) The incubation time is 7.5 minutes for [^3H]—NA and 5 minutes for [^3H]-5-HT. The 96 samples are then filtered through a Unifilter GF/B® microtitre plate (Packard) and washed with […] of incubated buffer using a “Brabdel MPXRI-96T Cell-Harvester”. The Unifilter GF/B plate is dried for 1 hour at 55° C. The plate is then sealed with a Back seal® (Packard) and 35 μl of scintillation fluid are added per well (Ultima Gold®, Packard). After sealing with a top seal® (Packard) and establishing an equilibrium (around 5 hours), radioactivity is determined in a “Trilux 1450 Microbeta” (Wallac).
(§7) The quantity of protein used in the above determination corresponds to the values known from the literature, as for example described in “Protein measurement with the folin phenol reagent”, Lowry et al., J. Biol. Chem., 193, 265-275, 1951. A detailed description of the method may additionally be found in the literature, for example in M.Ch. Frink, H.-H. Hennies, W. Engelberger, M. Haurand and B. Wilffert (1996) Arzneim.-Forsch./Drug Res. 46 (III), 11, 1029-1036. The disclosures of these two articles are hereby incorporated by reference.
(§8) The following characteristics were determined for the NA or 5-HT transporter: • NA uptake: Km=0.32±0.11 μM • 5HT uptake: Km=0.084±0.011 μM

[2] = target: T2, NA transporter (NA uptake) (Rattus norvegicus, UniProt Q63380); assay: Noradrenalin (NA) uptake inhibition in rat brain synaptosomes (hypothalamus); assay type: biochemical; details: 10 μM inhibition
T2 construct: from tissue; host or cells: rat brain synaptosomes (P2 fraction) from hypothalamus
T2 sequence (Q63380 1-617): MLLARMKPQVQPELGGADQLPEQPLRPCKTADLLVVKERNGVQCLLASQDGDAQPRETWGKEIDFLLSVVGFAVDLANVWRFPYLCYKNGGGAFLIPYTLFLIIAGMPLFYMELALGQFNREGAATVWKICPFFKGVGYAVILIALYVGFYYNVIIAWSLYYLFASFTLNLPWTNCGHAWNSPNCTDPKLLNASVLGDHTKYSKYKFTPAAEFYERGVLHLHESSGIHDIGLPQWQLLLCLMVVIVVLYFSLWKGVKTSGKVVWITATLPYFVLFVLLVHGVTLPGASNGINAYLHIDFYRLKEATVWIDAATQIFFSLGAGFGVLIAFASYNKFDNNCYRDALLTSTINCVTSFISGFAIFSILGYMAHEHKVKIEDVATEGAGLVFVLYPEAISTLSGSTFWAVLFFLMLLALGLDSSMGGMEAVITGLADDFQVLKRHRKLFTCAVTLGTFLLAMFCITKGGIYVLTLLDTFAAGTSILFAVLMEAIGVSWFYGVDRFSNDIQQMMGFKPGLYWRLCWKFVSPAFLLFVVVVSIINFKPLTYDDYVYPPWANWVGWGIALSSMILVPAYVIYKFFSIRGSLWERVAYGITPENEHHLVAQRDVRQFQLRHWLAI
Text: as §1, §2, §3, §4, §5, §6, §7, §8

| inhibition at 10 µM [1] | inhibition at 10 µM [2] | Compound | 5HT uptake inhibition ([1]; 10 μM) | NA uptake inhibition [2] |
| --- | --- | --- | --- | --- |
| – | – | 4-[1-Methyl-5-(4-phenyl-piperidin-1-ylmethyl)-1H-pyrrol-2-ylmethyl]-morpholine [Example 3] | 59% | 71 |
| 72% | – | CC1CCN(Cc2ccc(CN3CCCCC3)n2C)CC1 [Example 2, 1-(1-Methyl-5-piperidin-1-ylmethyl-1H-pyrrol-2-ylmethyl)-4-methylpiperidine] | – | – |
| 48% | 77% | Cn1c(CN2CCCCC2)ccc1CN1CCN(c2ccccc2)CC1 [Example 4, 1-(1-Methyl-5-piperidin-1-ylmethyl-1H-pyrrol-2-ylmethyl)-4-phenyl-piperazine] | – | – |
| 64% | 100% | Cn1c(CN2CCCCCC2)ccc1CN1CCC(Cc2ccccc2)CC1 [Example 5, 1-[5-(4-Benzyl-piperidin-1-ylmethyl)-1-methyl-1H-pyrrol-2-ylmethyl]-azepane] | – | – |
| 61% | 100% | CN(Cc1ccccc1)Cc1ccc(CN2CCC(Cc3ccccc3)CC2)n1C [Example 6, Benzyl-[5-(4-benzyl-piperidin-1-ylmethyl)-1-methyl-1H-pyrrol-2-ylmethyl]-methyl-amine] | – | – |
| 55% | 100% | Cn1c(CN2CCOCC2)ccc1CN1CCC(Cc2ccccc2)CC1 [Example 7, 4-[5-(4-Benzyl-piperidin-1-ylmethyl)-1-methyl-1H-pyrrol-2-ylmethyl]-morpholine] | – | – |
| – | 62% | CN(Cc1ccccc1)Cc1ccc(CN2CCCCCC2)n1C [Example 8, (5-Azepan-1-ylmethyl-1-methyl-1H-pyrrol-2-ylmethyl)-benzyl-methyl-amine] | – | – |
| – | 57% | CC1CCCCN1Cc1ccc(CN(C)Cc2ccccc2)n1C (stereo not drawn) [Example 9, Benzyl-methyl-[1-methyl-5-(2-methyl-piperidin-1-ylmethyl)-1H-pyrrol-2-ylmethyl]-amine] | – | – |
| – | – | Benzyl-methyl-[1-methyl-5-(4-phenyl-piperidin-1-ylmethyl)-1H-pyrrol-2-ylmethyl]-amine [Example 10] | – | 53 |

| Compound | inhibition at 10 µM [1] | inhibition at 10 µM [2] | 5HT uptake inhibition ([1]; 10 μM) | NA uptake inhibition [2] |
| --- | --- | --- | --- | --- |
| CCN(CC)Cc1ccc(CN2CCCCC2)n1C [Example 1, Diethyl-(1-methyl-5-piperidin-1-ylmethyl-1H-pyrrol-2-ylmethyl)-amine dihydrochloride] | 34% | – | – | – |
